Measured values as given in patent US12624068B2, “Exon skipping by peptide nucleic acid derivatives” (OliPass Corporation, priority 2016, dated 2026).
[C(1O2)] = modified PNA monomer acting as cytosine, C(pOq) type, 1O2; [A(5)] = modified PNA monomer acting as adenine, A(p) type, p=5; [G(5)] = modified PNA monomer acting as guanine, G(p) type, p=5; {Fethoc} = N-terminal Fethoc cap; {NH2} = C-terminal amide

What was measured:
[1] = system: mouse dystrophin pre-mRNA; assay: Dystrophin nested PCR (Method B) in muscles of mdx mice; assay type: in vivo; conditions: skeletal muscles sampled in Week 7
Protocol: The RNA samples obtained in “DMD Example 1” were subjected to a one-step cDNA synthesis using a set of exon-specific primers of [DMD-exon 20_forward: (5'→3') […] NO: 107); and DMD-exon 26_reverse: (5'→3') […] NO: 108)]. The cDNA samples were then analyzed by nested PCR against another set of exon-specific primers of [DMD-exon 20n_forward: (5'→3') […] NO: 109); and DMD-exon 26n_reverse: (5'→3') […] NO: 110)]. [Nested PCR for Exon Skipping (Method B)] Muscle samples were homogenized by grinding in a tube kept on ice, and subjected to total RNA extraction with 1 mL trizol reagent (Invitrogen) per ca 100 mg muscle tissue. The total RNAs were evaluated for exon skipping by nested PCR as described in “DMD Example 2”.

[2] = system: sodium ion current in rat DRG cells; assay: CoroNa assay of sodium current in rat L5 DRG neuronal cells; assay type: cell-based; conditions: rat L5 DRG cells without L5/L6 ligation, 30 hrs
Protocol: “SCN-ASO 27” was evaluated for its ability to inhibit the sodium ion current in rat DRG (dorsal root ganglion) cells using “CoroNa Green” as follows.
[SNL Surgery by L5/L6 Ligation] In Day 0, 6 weeks old male SD rats were anesthetized with zoletil/rompun. Then the L5 and L6 spinal nerve (left side) were exposed and tightly ligated. The muscle and skin were closed and clipped by due aseptic procedures. The rats were sporadically sensitized by von Frey scoring over a period of 4 weeks.
[Preparation of DRG Neuronal Cells] In Day 31, a rat showing a low von Frey score was sacrificed to extract both the left (ligated side) and the right (non-ligated side) DRG. […]
[ASO Treatment & CoroNa Assay] […] The culture dish was mounted on a fluorescence microscope equipped with a CCD camera to continuously capture the green fluorescent images of the cells. The cells were acutely treated with 10 mM NaCl, and then the changes in the cellular fluorescent intensity were digitally recorded over a period of 300 sec. […] The fluorescence intensities from each individual cell were traced at a resolution of a second. The traces of the intracellular fluorescence intensities from individual cells were averaged using ImageJ program (version 1.50i, NIH), and the average traces are provided in FIGS. 33A and 33B for the cells with “L5/L6 ligation” and without “L5/L6 ligation”, respectively. […]

With “Fethoc-A(5)GA-G(6)CC(1O2)-TCA-A(5)AA(5)-T-NH2 (antisense AGAGCCTCAAAAT; Fethoc N-cap, C-terminal amide, chemistry not fully specified) [DMD-ASO 1]” the “in-frame PCR products of Δexons 21-23 and Δexons 21-24 (nested PCR Method B)” value [1] was “detected in muscle samples of the ASO treatment groups”.
“Fethoc-AA(5)G-TG(5)T-A(5)CC(1O2)-TA(5)A-A(5)C-NH2 (AAGTGTACCTAAAC; splice-switching; all peptide nucleic acid (PNA), [A(5)] at 2, 7, 11, 13, [G(5)] at 5, [C(1O2)] at 9, 5' {Fethoc}, 3' {NH2}; peptide nucleic acid written N to C) [SCN-ASO 27]” was tested, and the “decrease in fluorescence intensity (CoroNa)” value ([2]; 1 aM) was roughly 50% and the “decrease in fluorescence intensity (CoroNa)” value ([2]; 100 zM) was “no decrease”.
